Publication PMC5218480 (PLoS ONE, 2017)

Tested on: MV-4-11 cells
Test: Gene expression microarray analysis (Affymetrix PrimeView) and GSEA
Format: cell-based, human
Set-up: RFU PODN (11730768_x_at) / Fold change /veh PODN (11730768_x_at) / RFU LINC00158 (11744669_a_at) / Fold change /veh LINC00158 (11744669_a_at) / RFU DUSP10 (11751237_a_at) / Fold change /veh DUSP10 (11751237_a_at) / RFU ID3 (11757404_x_at) / Fold change /veh ID3 (11757404_x_at) / RFU PLEKHG5 (11737974_s_at) / Fold change /veh PLEKHG5 (11737974_s_at) / RFU LRRC4B (11730491_at) / Fold change /veh LRRC4B (11730491_at) / RFU GIMAP4 (11747438_a_at) / Fold change /veh GIMAP4 (11747438_a_at) / RFU KRT8 (11758183_x_at) / Fold change /veh KRT8 (11758183_x_at) / RFU CNN1 (11734310_a_at) / Fold change /veh CNN1 (11734310_a_at) / RFU VPS37D (11726825_at) / Fold change /veh VPS37D (11726825_at) / RFU C10orf10 (11716522_x_at) / Fold change /veh C10orf10 (11716522_x_at) / RFU KIR2DL2 /// KIR2DL4 /// KIR2DL5A /// KIR2DL5B /// KIR2DS1 /// KIR2DS2 /// KIR2DS3 /// KIR2DS4 /// KIR3DL3 /// KIR3DL3 /// KIR3DS1 (11738374_at) / Fold change /veh KIR2DL2 /// KIR2DL4 /// KIR2DL5A /// KIR2DL5B /// KIR2DS1 /// KIR2DS2 /// KIR2DS3 /// KIR2DS4 /// KIR3DL3 /// KIR3DL3 /// KIR3DS1 (11738374_at) / RFU C1QL1 (11718748_at) / Fold change /veh C1QL1 (11718748_at) / RFU TMPRSS4 (11747572_a_at) / Fold change /veh TMPRSS4 (11747572_a_at) / RFU HAMP (11756126_x_at) / Fold change /veh HAMP (11756126_x_at) / RFU RNFT2 (11725882_a_at) / Fold change /veh RNFT2 (11725882_a_at) / RFU NR4A2 (11747474_a_at) / Fold change /veh NR4A2 (11747474_a_at) / RFU ABCC12 (11746883_a_at) / Fold change /veh ABCC12 (11746883_a_at) / RFU TMEM136 (11760407_x_at) / Fold change /veh TMEM136 (11760407_x_at) / RFU CLDN22 /// WWC2 (11732394_at) / Fold change /veh CLDN22 /// WWC2 (11732394_at) / RFU HLA-DPB1 (11760878_x_at) / Fold change /veh HLA-DPB1 (11760878_x_at) / RFU SPINT1 (11716480_a_at) / Fold change /veh SPINT1 (11716480_a_at) / RFU GAP43 (11754022_s_at) / Fold change /veh GAP43 (11754022_s_at) / RFU A4GNT (11735810_at) / Fold change /veh A4GNT (11735810_at) / RFU PRB3 (11715151_x_at) / Fold change /veh PRB3 (11715151_x_at) / RFU TUBB4B (11761932_at) / Fold change /veh TUBB4B (11761932_at) / RFU CAPN14 (11732068_a_at) / Fold change /veh CAPN14 (11732068_a_at) / RFU TMCC2 (11721928_a_at) / Fold change /veh TMCC2 (11721928_a_at) / RFU IRGQ (11745062_a_at) / Fold change /veh IRGQ (11745062_a_at) / RFU FAM174B (11720279_a_at) / Fold change /veh FAM174B (11720279_a_at) / RFU TMPRSS4 (11748680_a_at) / Fold change /veh TMPRSS4 (11748680_a_at) / RFU FAM212B (11763350_a_at) / Fold change /veh FAM212B (11763350_a_at) / RFU PLEKHG5 (11743358_a_at) / Fold change /veh PLEKHG5 (11743358_a_at) / RFU ZSCAN30 (11745921_a_at) / Fold change /veh ZSCAN30 (11745921_a_at) / RFU CMKLR1 (11741424_a_at) / Fold change /veh CMKLR1 (11741424_a_at) / RFU LOC101060620 /// MAPK8IP1 (11723275_at) / Fold change /veh LOC101060620 /// MAPK8IP1 (11723275_at) / RFU SPTSSB (11747773_x_at) / Fold change /veh SPTSSB (11747773_x_at) / RFU PRSS12 (11739890_at) / Fold change /veh PRSS12 (11739890_at) / RFU BIN1 (11741810_x_at) / Fold change /veh BIN1 (11741810_x_at) / RFU WNT11 (11732464_a_at) / Fold change /veh WNT11 (11732464_a_at) / RFU C10orf10 (11716521_a_at) / Fold change /veh C10orf10 (11716521_a_at) / RFU C5orf56 (11738089_at) / Fold change /veh C5orf56 (11738089_at) / RFU CYB561 (11721691_x_at) / Fold change /veh CYB561 (11721691_x_at) / RFU ANKRD19P (11752326_a_at) / Fold change /veh ANKRD19P (11752326_a_at) / RFU OR2T12 /// OR2T33 /// OR2T8 (11738714_s_at) / Fold change /veh OR2T12 /// OR2T33 /// OR2T8 (11738714_s_at) / RFU VCAN (11748164_a_at) / Fold change /veh VCAN (11748164_a_at) / RFU JSRP1 (11732532_at) / Fold change /veh JSRP1 (11732532_at) / RFU KRTAP10-11 (11738290_x_at) / Fold change /veh KRTAP10-11 (11738290_x_at) / RFU MYO3A (11730013_a_at) / Fold change /veh MYO3A (11730013_a_at) / RFU EBF3 (11725865_a_at) / Fold change /veh EBF3 (11725865_a_at) / RFU CAMK2N1 (11719241_x_at) / Fold change /veh CAMK2N1 (11719241_x_at) / RFU C5orf56 (11738088_a_at) / Fold change /veh C5orf56 (11738088_a_at) / RFU OLFML3 (11715873_a_at) / Fold change /veh OLFML3 (11715873_a_at) / RFU LOC100653217 /// NTM (11731650_a_at) / Fold change /veh LOC100653217 /// NTM (11731650_a_at) / RFU MAPK11 (11762145_a_at) / Fold change /veh MAPK11 (11762145_a_at) / RFU FIZ1 (11724087_x_at) / Fold change /veh FIZ1 (11724087_x_at) / RFU OASL (11726364_x_at) / Fold change /veh OASL (11726364_x_at) / RFU SOX15 (11748057_x_at) / Fold change /veh SOX15 (11748057_x_at) / RFU CD79A (11719716_a_at) / Fold change /veh CD79A (11719716_a_at) / RFU HIST1H1D (11736915_at) / Fold change /veh HIST1H1D (11736915_at) / RFU CASKIN2 (11723855_a_at) / Fold change /veh CASKIN2 (11723855_a_at) / RFU LOC730098 (11760151_x_at) / Fold change /veh LOC730098 (11760151_x_at) / RFU OR4N2 (11742367_at) / Fold change /veh OR4N2 (11742367_at) / RFU PRRT2 (11749266_a_at) / Fold change /veh PRRT2 (11749266_a_at) / RFU SNX32 (11753110_a_at) / Fold change /veh SNX32 (11753110_a_at) / RFU CDHR5 (11726645_a_at) / Fold change /veh CDHR5 (11726645_a_at) / RFU RCAN1 (11760418_a_at) / Fold change /veh RCAN1 (11760418_a_at) / RFU FAM167A (11723789_a_at) / Fold change /veh FAM167A (11723789_a_at) / RFU FAM26E (11764081_at) / Fold change /veh FAM26E (11764081_at) / RFU ISYNA1 (11749810_s_at) / Fold change /veh ISYNA1 (11749810_s_at) / RFU ACY1 (11761880_at) / Fold change /veh ACY1 (11761880_at) / RFU 11764098_at / Fold change /veh 11764098_at / RFU SAMD14 (11745864_x_at) / Fold change /veh SAMD14 (11745864_x_at) / RFU NPB (11741838_a_at) / Fold change /veh NPB (11741838_a_at) / RFU TMPRSS6 (11731388_a_at) / Fold change /veh TMPRSS6 (11731388_a_at) / RFU KRTAP10-2 (11738614_at) / Fold change /veh KRTAP10-2 (11738614_at) / RFU ARHGAP8 /// PRR5-ARHGAP8 (11727945_x_at) / Fold change /veh ARHGAP8 /// PRR5-ARHGAP8 (11727945_x_at) / RFU KRTAP5-7 /// NADSYN1 (11734609_at) / Fold change /veh KRTAP5-7 /// NADSYN1 (11734609_at) / RFU RASL12 (11751679_a_at) / Fold change /veh RASL12 (11751679_a_at) / RFU CDKN2B (11736163_a_at) / Fold change /veh CDKN2B (11736163_a_at) / RFU PRF1 (11729649_at) / Fold change /veh PRF1 (11729649_at) / RFU, ZNF638 /// ZNF638-IT1 / Fold change vs veh, ZNF638 /// ZNF638-IT1 / RFU, PANK3 / Fold change vs veh, PANK3 / RFU, SH3YL1 / Fold change vs veh, SH3YL1 / RFU, ZEB2 / Fold change vs veh, ZEB2 / RFU, NRIP1 / Fold change vs veh, NRIP1 / RFU, PTTG1IP / Fold change vs veh, PTTG1IP / RFU, CAPN2 / Fold change vs veh, CAPN2 / RFU, MED14 / Fold change vs veh, MED14 / RFU, SNORA58 / Fold change vs veh, SNORA58 / RFU, C1orf63 / Fold change vs veh, C1orf63 / RFU, LRRFIP1 / Fold change vs veh, LRRFIP1 / RFU, NDUFAF7 / Fold change vs veh, NDUFAF7 / RFU, SLC12A2 / Fold change vs veh, SLC12A2 / RFU, IBTK / Fold change vs veh, IBTK / RFU, ESF1 / Fold change vs veh, ESF1 / Fold change vs veh, TMEM50B / RFU, TAOK1 / Fold change vs veh, TAOK1 / RFU, ACBD3 / Fold change vs veh, ACBD3 / RFU, TMA16 / Fold change vs veh, TMA16 / RFU, RWDD3 / Fold change vs veh, RWDD3 / RFU, BCAT1 / Fold change vs veh, BCAT1 / RFU, EDEM3 / Fold change vs veh, EDEM3 / RFU, TMEM33 / Fold change vs veh, TMEM33 / RFU, WDR75 / Fold change vs veh, WDR75 / RFU, AHCTF1 / Fold change vs veh, AHCTF1 / RFU, TFRC / Fold change vs veh, TFRC / RFU, ZDHHC17 / Fold change vs veh, ZDHHC17 / RFU, NOM1 / Fold change vs veh, NOM1 / RFU, ARL8B / Fold change vs veh, ARL8B / RFU, ZBTB11 / Fold change vs veh, ZBTB11 / RFU, TAMM41 / Fold change vs veh, TAMM41 / RFU, KIAA1704 /// LOC100996395 / Fold change vs veh, KIAA1704 /// LOC100996395 / RFU, ING1 / Fold change vs veh, ING1 / RFU, TRMT61B / Fold change vs veh, TRMT61B / RFU, FUBP3 / Fold change vs veh, FUBP3 / RFU, TP53 / Fold change vs veh, TP53 / RFU, TNKS2 / Fold change vs veh, TNKS2 / RFU, ZFP14 / Fold change vs veh, ZFP14 / RFU, ACTR2 / Fold change vs veh, ACTR2 / RFU, PPP3R1 / Fold change vs veh, PPP3R1 / RFU, PIK3R1 / Fold change vs veh, PIK3R1 / RFU, HNRNPA1 / Fold change vs veh, HNRNPA1 / RFU, RNF170 / Fold change vs veh, RNF170 / RFU, ZNF28 / Fold change vs veh, ZNF28 / RFU, RNGTT / Fold change vs veh, RNGTT / RFU, OGT / Fold change vs veh, OGT / RFU, BRD1 / Fold change vs veh, BRD1 / RFU, MARS / Fold change vs veh, MARS / RFU, ZNF655 / Fold change vs veh, ZNF655 / RFU, FAHD1 / Fold change vs veh, FAHD1 / RFU, BDP1 / Fold change vs veh, BDP1 / RFU, LRRCC1 / Fold change vs veh, LRRCC1 / RFU, ARID1A / Fold change vs veh, ARID1A / RFU, ZNF146 / Fold change vs veh, ZNF146 / RFU, ZNF330 / Fold change vs veh, ZNF330 / RFU, GPN3 / Fold change vs veh, GPN3 / RFU, C9orf123 / Fold change vs veh, C9orf123 / RFU, N4BP2L2 / Fold change vs veh, N4BP2L2 / RFU, ARFIP1 / Fold change vs veh, ARFIP1 / RFU, FAM179B / Fold change vs veh, FAM179B / RFU, BCL10 / Fold change vs veh, BCL10 / RFU, UHRF1BP1L / Fold change vs veh, UHRF1BP1L / RFU, BET1 / Fold change vs veh, BET1 / RFU, CNOT2 / Fold change vs veh, CNOT2 / RFU, ZNF268 / Fold change vs veh, ZNF268 / Fold change vs veh, ZNF507 / RFU, DGCR2 / Fold change vs veh, DGCR2 / RFU, WDSUB1 / Fold change vs veh, WDSUB1 / Fold change vs veh, HSP90B1 /// MIR3652 / RFU, ADSS / Fold change vs veh, ADSS / RFU, GK / Fold change vs veh, GK / RFU, ZNF148 / Fold change vs veh, ZNF148 / RFU, TAF9 / Fold change vs veh, TAF9 / RFU, SLC1A5 / Fold change vs veh, SLC1A5 / RFU, SLMO2 / Fold change vs veh, SLMO2 / RFU, ABCC4 / Fold change vs veh, ABCC4 / RFU, LOC101060439 /// RAP1B / Fold change vs veh, LOC101060439 /// RAP1B / RFU, RFX7 / Fold change vs veh, RFX7 / RFU, GTPBP10 / Fold change vs veh, GTPBP10 / RFU, CNEP1R1 / Fold change vs veh, CNEP1R1 / RFU, BIVM-ERCC5 /// ERCC5 / Fold change vs veh, BIVM-ERCC5 /// ERCC5 / RFU, ILF3 / Fold change vs veh, ILF3 / RFU 11762660_at / Fold change /veh 11762660_at / RFU VCAN (11757783_s_at) / Fold change /veh VCAN (11757783_s_at) / RFU DDX43 (11728927_at) / Fold change /veh DDX43 (11728927_at) / RFU KRT8 (11758188_x_at) / Fold change /veh KRT8 (11758188_x_at) / RFU NKD1 (11759106_at) / Fold change /veh NKD1 (11759106_at) / RFU SRD5A1 (11742802_a_at) / Fold change /veh SRD5A1 (11742802_a_at) / RFU TPSAB1 /// TPSB2 (11721975_s_at) / Fold change /veh TPSAB1 /// TPSB2 (11721975_s_at) / RFU GSTM3 (11746129_a_at) / Fold change /veh GSTM3 (11746129_a_at) / RFU IL23R (11737362_x_at) / Fold change /veh IL23R (11737362_x_at) / RFU TMEM51 (11727254_a_at) / Fold change /veh TMEM51 (11727254_a_at) / RFU PIWIL2 (11732686_x_at) / Fold change /veh PIWIL2 (11732686_x_at) / RFU ORM1 (11744905_x_at) / Fold change /veh ORM1 (11744905_x_at) / RFU CCDC152 (11743942_at) / Fold change /veh CCDC152 (11743942_at) / RFU ECM1 (11717891_a_at) / Fold change /veh ECM1 (11717891_a_at) / RFU IL23R (11748794_a_at) / Fold change /veh IL23R (11748794_a_at) / RFU TNFAIP8L3 (11732012_x_at) / Fold change /veh TNFAIP8L3 (11732012_x_at) / RFU MBOAT4 (11741988_at) / Fold change /veh MBOAT4 (11741988_at) / RFU 11764193_at / Fold change /veh 11764193_at / RFU TMEM53 (11763286_at) / Fold change /veh TMEM53 (11763286_at) / RFU MAGEB2 (11727129_at) / Fold change /veh MAGEB2 (11727129_at) / RFU TMEM200A (11744735_a_at) / Fold change /veh TMEM200A (11744735_a_at) / RFU CCDC152 (11751479_a_at) / Fold change /veh CCDC152 (11751479_a_at) / RFU FAM211A (11726209_a_at) / Fold change /veh FAM211A (11726209_a_at) / RFU RGS16 (11746705_a_at) / Fold change /veh RGS16 (11746705_a_at) / RFU VCAN (11755009_s_at) / Fold change /veh VCAN (11755009_s_at) / RFU RHOB (11743442_s_at) / Fold change /veh RHOB (11743442_s_at) / RFU RGS16 (11720943_a_at) / Fold change /veh RGS16 (11720943_a_at) / RFU RGS16 (11720944_at) / Fold change /veh RGS16 (11720944_at) / RFU, VPS4B / Fold change vs veh, VPS4B / RFU, CREB1 / Fold change vs veh, CREB1 / RFU, DNAJC13 / Fold change vs veh, DNAJC13 / RFU, GNAQ / Fold change vs veh, GNAQ / RFU, CDK5R1 / Fold change vs veh, CDK5R1 / RFU, ZRANB3 / Fold change vs veh, ZRANB3 / RFU, CUL4A / Fold change vs veh, CUL4A / RFU, CCNY / Fold change vs veh, CCNY / RFU, UFL1 / Fold change vs veh, UFL1 / RFU, COG3 / Fold change vs veh, COG3 / RFU, DIAPH2 / Fold change vs veh, DIAPH2 / RFU, SKA2 / Fold change vs veh, SKA2 / RFU, AFF3 / Fold change vs veh, AFF3 / RFU, LMF1 / Fold change vs veh, LMF1 / RFU, IPO11 / Fold change vs veh, IPO11 / RFU, DFFB / Fold change vs veh, DFFB / RFU, FOXP1 / Fold change vs veh, FOXP1 / RFU, CARD8 / Fold change vs veh, CARD8 / RFU, STRN3 / Fold change vs veh, STRN3 / RFU, ADK / Fold change vs veh, ADK / RFU, RASSF2 / Fold change vs veh, RASSF2 / RFU, WIPF1 / Fold change vs veh, WIPF1 / RFU, LARP1B / Fold change vs veh, LARP1B / RFU, RASA1 / Fold change vs veh, RASA1 / RFU, RB1 / Fold change vs veh, RB1 / RFU, PPFIA1 / Fold change vs veh, PPFIA1 / RFU, MAT2A / Fold change vs veh, MAT2A / RFU, CCT5 / Fold change vs veh, CCT5 / RFU, WDR92 / Fold change vs veh, WDR92 / RFU, CUX1 / Fold change vs veh, CUX1 / RFU, TTC7A / Fold change vs veh, TTC7A / RFU, TMEM135 / Fold change vs veh, TMEM135 / RFU, DEPTOR / Fold change vs veh, DEPTOR / RFU, CPM / Fold change vs veh, CPM / RFU, DNAJB6 / Fold change vs veh, DNAJB6 / RFU, CACNA2D3 / Fold change vs veh, CACNA2D3 / RFU, DTX4 / Fold change vs veh, DTX4 / RFU, TFCP2 / Fold change vs veh, TFCP2 / RFU, GMCL1 /// GMCL1P1 / Fold change vs veh, GMCL1 /// GMCL1P1 / RFU, AEBP2 / Fold change vs veh, AEBP2 / RFU, SNHG1 /// SNORD22 /// SNORD25 /// SNORD26 /// SNORD27 /// SNORD28 /// SNORD29 /// SNORD31 / Fold change vs veh, SNHG1 /// SNORD22 /// SNORD25 /// SNORD26 /// SNORD27 /// SNORD28 /// SNORD29 /// SNORD31 / Fold change (Aza/veh), C12orf56 (ProbeSet 11735607_a_at) / Fold change (ACY-1035/veh), C12orf56 (ProbeSet 11735607_a_at) / Fold change (Aza/veh), FGFR1OP (ProbeSet 11751329_s_at) / Fold change (ACY-1035/veh), FGFR1OP (ProbeSet 11751329_s_at) / Fold change (Aza/veh), VPS36 (ProbeSet 11739960_a_at) / Fold change (ACY-1035/veh), VPS36 (ProbeSet 11739960_a_at) / RFU SYPL1 (11715823_x_at) / Fold change /veh SYPL1 (11715823_x_at) / RFU IGFBP7 (11715501_s_at) / Fold change /veh IGFBP7 (11715501_s_at) / RFU REEP3 (11722064_at) / Fold change /veh REEP3 (11722064_at) / RFU IGLL1 (11728026_x_at) / Fold change /veh IGLL1 (11728026_x_at): dose or concentration left out as unconfirmed
Details: MV-4-11 cells, 48 hours

Nc1ncn([C@@H]2O[C@H](CO)[C@@H](O)[C@H]2O)c(=O)n1 [azacitidine]
RFU TMPRSS4 (11747572_a_at): 53.17 RFU
